The results in this text go back to patent publication US20250101001A1 (priority 2021, published 2025).

Test [1] relates to 5HT2A sensor. Format: cell-based.
Test [2] has as its system 5HT2A sensor. Format: cell-based. The source holds these as a separate data set.
The format of test [3] is in vivo. To be noted: mice. The protocol: Head twitch response (HTR) experiments. C57BL/6J Mice (9-10 weeks old) are housed following an IACUC approved protocol. The mice are habituated in the test cage for at least 30 min, injected intraperitoneally with compound (injection volume 5 ml/kg), returned to the empty test cage, and filmed for 20 minutes. Each video is scored for the number of head-twitches by a trained observer blinded to treatment condition.

Test [4] concerns the target T1, 5-HT2A (Homo sapiens, UniProt P28223). The test can be described thus: Serotonin 5-HT2A in vitro radioligand binding competition assay ([3H]-DOI). Details: purchased Epics Therapeutics S. A. (Belgium) FAST-0505B. The following applies: [3H]-DOI competition, membrane extracts. As for the experimental part: Serotonin 5-HT2A In Vitro Radioligand Binding Competition Assay. The 5-HT2A radioligand binding competition assay was performed at Epics Therapeutics S. A. (Belgium, FAST-0505B) using conventional methods. Briefly, competition binding was performed in duplicate in the wells of a 96 well plate (Master Block, Greiner, 786201) containing binding buffer (optimized for each receptor), membrane extracts (amount of protein/well optimized for each receptor), radiotracer [^3H]-DOI (final concentration optimized for each receptor) and test compound. Nonspecific binding was determined by co-incubation with 200-fold excess of cold competitor. The samples were incubated in a final volume of 0.1 ml at a temperature and for a duration optimized for each receptor and then filtered over filter plates. Filters were washed six times with 0.5 ml of ice-cold washing buffer (optimized for each receptor) and 50 μl of Microscint 20 (Packard) were added in each well. The plates were incubated 15 min on an orbital shaker and then counted with a TopCount™ for 1 min/well.

Test [5] concerns the target T1, 5-HT2A. The test can be described thus: Serotonin 5-HT2A in vitro cellular IPOne agonism assay. The format is cell-based. Further details: host or cells: CHO-K1. The following applies: CHO-K1 cells, IPOne HTRF, agonist mode. As for the experimental part:
Serotonin 5-HT2A In Vitro Cellular IPOne Agonism Assay. The 5-HT2A IPOne HTRF assay was performed at Epics Therapeutics S.A. (Belgium, FAST-0505I) using conventional methods. Briefly, CHO-K1 cells expressing human recombinant 5-HT2A receptor grown to mid-log phase in culture media without antibiotics were detached with PBS-EDTA, centrifuged, and resuspended in medium without antibiotics buffer. 20,000 cells are distributed in a 96 well plate and incubated overnight at 37° C. with 5% Co2.
For agonist testing, the medium was removed and […] of assay buffer plus 20 μl of test compound or reference agonist were added in each well. The plate was incubated for 60 min. at 37° C. with 5% CO2.
(§1) After addition of the lysis buffer containing IP1-d2 and anti-IP1 cryptate detection reagents, plates were incubated 1-hour at room temperature, and fluorescence ratios were measured according to the manufacturer specification, with the HTRF kit.

The target of test [6] is T1, 5-HT2A. The test can be described thus: Serotonin 5-HT2A in vitro cellular IPOne antagonism assay. The format is cell-based. Details: host or cells: CHO-K1. The following applies: CHO-K1 cells, IPOne HTRF, reference agonist a-Me-5HT. The protocol: Serotonin 5-HT2A and 5-HT2C In Vitro Cellular IPOne Antagonism Assay. The 5-HT2A and 5-HT2C IPOne HTRF assay was performed at Epics Therapeutics S.A. (Belgium, FAST-0505I) in antagonism mode using conventional methods. Briefly, CHO-K1 cells expressing human recombinant 5-HT2A or 5-HT2C receptor grown to mid-log phase in culture media without antibiotics were detached with PBS-EDTA, centrifuged, and resuspended in medium without antibiotics buffer. 20,000 cells were distributed in a 96 well plate and incubated overnight at 37° C. with 5% C02.
For antagonist testing, a reference agonist a-Me-5HT was added and fluorescence signal monitored for several minutes, followed by addition of 20 μlof assay buffer plus 20 μl of test compound or reference antagonist ketanserin, in each well. The plate was incubated for 60 min. at 37° C. with 5% CO2.
as §1
(In general: TR-FRET usually uses a lanthanide donor and a delayed reading to cut background.)

T1 sequence (P28223 whole entry): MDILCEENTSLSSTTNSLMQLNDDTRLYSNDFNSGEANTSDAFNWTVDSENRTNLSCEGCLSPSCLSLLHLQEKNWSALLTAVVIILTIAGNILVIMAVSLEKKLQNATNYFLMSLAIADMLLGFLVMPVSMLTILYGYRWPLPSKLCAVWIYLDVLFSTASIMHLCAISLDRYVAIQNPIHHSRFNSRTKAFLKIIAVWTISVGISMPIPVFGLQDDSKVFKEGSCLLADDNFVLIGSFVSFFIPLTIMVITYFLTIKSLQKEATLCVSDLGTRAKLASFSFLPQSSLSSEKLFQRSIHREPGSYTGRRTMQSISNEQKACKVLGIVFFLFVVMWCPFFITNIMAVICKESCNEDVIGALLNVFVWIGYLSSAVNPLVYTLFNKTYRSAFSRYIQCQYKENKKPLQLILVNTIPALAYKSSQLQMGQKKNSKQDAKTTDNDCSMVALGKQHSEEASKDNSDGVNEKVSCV

Turning to 6-F-DET [Compound 6-F-DET], in the test on 5HT2A sensor [1], the “competition with 5-HT in the 5HT2A sensor assay in antagonist mode” value (“competition with 5-HT” below) is given as “can compete with 5HT binding to 5HT2A”. In the test with 5HT2A sensor [2], the “activation of the 5HT2A sensor assay in agonist mode” value (“activation of the 5HT2A sensor assay” for short) is on record as “do not activate the 5HT2A sensor assay in agonist mode”.
On to BOL148, for which the “competition with 5-HT” value with 5HT2A sensor [1] is on record as “can compete with 5HT binding to 5HT2A”. The “activation of the 5HT2A sensor assay” value in the test on 5HT2A sensor [2] is “do not activate the 5HT2A sensor assay in agonist mode”.
For 6-MeO-DMT [Compound 6-MeO-DMT], the “competition with 5-HT” value with 5HT2A sensor [1] was “compete off 5-HT”. For the same compound, the “head-twitch response (HTR)” value in test [3] was “does not produce a HTR”. Besides, the “activation of the 5HT2A sensor assay” value in the test on 5HT2A sensor [2] is listed as “do not activate the 5HT2A sensor assay in agonist mode”.
For `O=C(c1ccc(F)cc1)C1CCN(CCn2c(=O)[nH]c3ccccc3c2=O)CC1` [Ketanserin], in the test with 5HT2A sensor [1], the “competition with 5-HT” value is “can compete with 5HT binding to 5HT2A”. The “activation of the 5HT2A sensor assay” value in the test on 5HT2A sensor [2] was “do not activate the 5HT2A sensor assay in agonist mode”.
`CN(C)CCc1c[nH]c2ccccc12` [DMT, N,N-dimethyltryptamine]: the “activation of the 5HT2A sensor assay” value in the test on 5HT2A sensor [2] is on record as “activate the 5HT2A sensor assay in agonist mode”.
L-MDMA: in the test on 5HT2A sensor [2], the “activation of the 5HT2A sensor assay” value is on record as “do not activate the 5HT2A sensor assay in agonist mode”.
Consider R-MDMA, for which, in the test with 5HT2A sensor [2], the “activation of the 5HT2A sensor assay” value is given as “do not activate the 5HT2A sensor assay in agonist mode”.
On to `CN1CCC(n2ccc3c(F)c(F)ccc32)C1` (stereo not drawn) [Compound 8, 4,5-difluoro-1-(1-methylpyrrolidin-3-yl)-1H-indole], for which the IC50 on 5-HT2A [4] and at 5-HT2A [6] was 101 to 1000 nM in each case. Further, on 5-HT2A [5], the EC50 was in the range of 101 to 1000 nM.
As for `COc1cc(CC(C)N)c(OC)cc1I.Cl` (racemic) [DOI], in the test with 5HT2A sensor [2], the “activation of the 5HT2A sensor assay” value is recorded as “activate the 5HT2A sensor assay in agonist mode”.
As to `Fc1ccc2ccn(C3CNC3)c2c1` [Compound 28, 1-(azetidin-3-yl)-6-fluoro-1H-indole], the IC50 at 5-HT2A [4] and on 5-HT2A [6] was 101 to 1000 nM in each case. At 5-HT2A [5], the EC50 is more than 10000 nM.
Take `COc1ccc2c(ccn2C2CN(C)C2)c1` [Compound 31, 5-methoxy-1-(1-methylazetidin-3-yl)-1H-indole]: the IC50 on 5-HT2A [4] and at 5-HT2A [6] was more than 10000 nM throughout. The compound further yielded an EC50 at 5-HT2A [5] of more than 10000 nM.
Take `Cc1cn(C2CCNCC2)c2ccc(F)cc12` [Compound 3, 5-fluoro-3-methyl-1-(piperidin-4-yl)-1H-indole]: the IC50 at 5-HT2A [4] and at 5-HT2A [6] was 101 to 1000 nM throughout. The compound also gave an EC50 on 5-HT2A [5] of more than 10000 nM.
Turning to `Fc1ccc2c(ccn2C2CNC2)c1F` [Compound 2, 1-(azetidin-3-yl)-4,5-difluoro-1H-indole], the IC50 at 5-HT2A [4] and on 5-HT2A [6] was 101 to 1000 nM in each case. The EC50 at 5-HT2A [5] is more than 10000 nM.
In the case of 5-MeO-DMT [Compound 5-MeO-DMT], the “head-twitch response (HTR)” value in test [3] is “produces a robust, dose-dependent head-twitch response”. The “activation of the 5HT2A sensor assay” value with 5HT2A sensor [2] is given as “activate the 5HT2A sensor assay in agonist mode”.

A word on the IC50: it is the concentration needed to halve the response being measured. The EC50 is the concentration that produces a half-maximal response.
